Here are results for eight compounds from ChEMBL document CHEMBL1201862, “PubChem BioAssay data set” (2004).

Experiment [1] addresses Alkaline phosphatase, placental type (Homo sapiens, UniProt P05187). Briefly: PLAP enzyme inhibitors, confirmation, biochemical, luminescence (AID 1512). The experiment is classed as functional.
Experiment [2] concerns the target T1, Alkaline phosphatase, tissue-nonspecific isozyme (Homo sapiens, UniProt P05186).
T1 sequence (P05186 whole entry): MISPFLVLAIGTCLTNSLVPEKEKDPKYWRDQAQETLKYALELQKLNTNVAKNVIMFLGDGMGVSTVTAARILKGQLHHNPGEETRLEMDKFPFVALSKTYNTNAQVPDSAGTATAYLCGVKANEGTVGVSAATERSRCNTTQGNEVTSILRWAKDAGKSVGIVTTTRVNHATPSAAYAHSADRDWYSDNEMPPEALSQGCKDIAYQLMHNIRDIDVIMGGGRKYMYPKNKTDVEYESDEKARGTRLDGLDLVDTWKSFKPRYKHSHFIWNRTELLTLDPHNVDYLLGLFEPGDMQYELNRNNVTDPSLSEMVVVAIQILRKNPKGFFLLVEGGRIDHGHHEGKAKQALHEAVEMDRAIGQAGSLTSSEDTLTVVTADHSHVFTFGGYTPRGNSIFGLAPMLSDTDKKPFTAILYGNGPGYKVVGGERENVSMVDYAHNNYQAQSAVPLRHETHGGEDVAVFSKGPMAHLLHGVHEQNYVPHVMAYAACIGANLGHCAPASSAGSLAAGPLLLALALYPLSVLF
The experiment can be described thus: human TNAP enzyme inhibitors, SAR follow-up, biochemical, luminescent, dose response (AID 1056).

The target in experiment [3] is T2, Voltage-gated N-type calcium channel alpha-1B subunit/Amyloid beta A4 precursor protein-binding family A member 1 (Homo sapiens, UniProt Q00975+Q02410). The experiment is classed as protein assay.
Experiment [4] concerns the target T2, Voltage-gated N-type calcium channel alpha-1B subunit/Amyloid beta A4 precursor protein-binding family A member 1. In kind it is protein assay. The source holds these as a separate data set.
The target in a further experiment is Trypsin (Sus scrofa, UniProt P00761). The experiment can be described thus: porcine trypsin inhibitors, dose response, selectivity assay for Rce1 protease inhibitor project, biochemical, quenched peptide fluorescence, cherry-pick (AID 488789).
Experiment [5] concerns the target T3, Rac GTPase-activating protein 1 (Homo sapiens, UniProt Q9H0H5).
T3 sequence (Q9H0H5 whole entry): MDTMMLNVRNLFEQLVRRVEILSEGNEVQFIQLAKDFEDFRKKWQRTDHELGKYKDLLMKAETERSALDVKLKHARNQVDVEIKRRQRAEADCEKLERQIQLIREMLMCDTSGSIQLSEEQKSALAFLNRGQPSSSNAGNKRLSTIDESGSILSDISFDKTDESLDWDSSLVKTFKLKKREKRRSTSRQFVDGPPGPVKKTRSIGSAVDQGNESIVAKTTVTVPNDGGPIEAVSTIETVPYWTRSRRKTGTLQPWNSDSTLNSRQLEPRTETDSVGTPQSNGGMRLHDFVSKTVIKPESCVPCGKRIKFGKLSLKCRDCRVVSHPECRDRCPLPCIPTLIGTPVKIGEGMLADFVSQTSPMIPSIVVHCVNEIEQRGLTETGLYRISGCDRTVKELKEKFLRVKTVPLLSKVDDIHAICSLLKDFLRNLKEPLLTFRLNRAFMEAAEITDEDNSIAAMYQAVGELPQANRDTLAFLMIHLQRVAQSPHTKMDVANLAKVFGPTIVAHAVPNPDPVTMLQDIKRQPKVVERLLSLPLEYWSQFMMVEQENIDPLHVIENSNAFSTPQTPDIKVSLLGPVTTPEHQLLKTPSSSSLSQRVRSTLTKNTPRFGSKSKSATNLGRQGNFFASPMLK
The experiment can be described thus: MgcRacGAP GTPase-activating activity inhibitors, confirmation, biochemical, ADP Hunter fluorescence, primary and confirmatory (AID 624330). In kind it is functional.

A short description of experiment [6]: control 3'UTR Renilla luciferase suppression, dose response, counter-screen for Shn3 inhibitor project, cell-based, Clone20-Shn3RL, cherry-picked (AID 624133). In kind it is functional.
Experiment [7] can be described thus: HepG2 cell cytotoxicity, dose response, cytotoxicity control for Shn3 inhibitor project, CellTiter-Glo, cherry-picked (AID 624134). The experiment is classed as functional, cell-based.
Experiment [8] is described as follows: inhibitors of intracellular T. cruzi replication, confirmation, NIH3T3 host cells, beta-gal luminescence (AID 2044).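 Further: intracellular parasites grown in NIH/3T3 mouse fibroblasts as host cells; luminescent beta-galactosidase reporter signal from transgenic T. cruzi replicating inside host cells; inhibitors lower the luminescence signal.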 In kind it is functional, cell-based.
A short description of experiment [9]: Luminescence Cell-Based Dose Retest to Confirm Inhibitors of Cancer Stem Cells. [Related pubchem assays (depositor defined):AID2717, AID2721]. In kind it is functional. The conditions noted are these: Homo sapiens.
Experiment [10] can be described thus: Shn3 3'UTR reporter inhibitors, dose response, cell-based, Clone20 osteoblasts, firefly luciferase, cherry-picked (AID 624132).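 Further: firefly luciferase luminescence from reporter carrying the Shn3 3'UTR in osteoblasts.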 The experiment is classed as functional.
Experiment [11] can be described thus: cytotoxicity toward NIH3T3 fibroblasts, dose response, counter-screen, cell-based, ATP luminescence, mouse fibroblasts (AID 2010).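 Further: cells exposed to compound for about 90 hours before reading.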 The experiment is classed as functional. Background: Counterscreens check selectivity or assay interference.
Another experiment concerns the target X-box-binding protein 1 (Homo sapiens, UniProt P17861). In kind it is functional, Cricetulus griseus.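 Further: confirmatory dose-response counter-screen serving a CHOP assay.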
Experiment [12] concerns the target T4, RNA-binding protein pos-1 (Caenorhabditis elegans, UniProt G5EF15).
T4 sequence (G5EF15 whole entry): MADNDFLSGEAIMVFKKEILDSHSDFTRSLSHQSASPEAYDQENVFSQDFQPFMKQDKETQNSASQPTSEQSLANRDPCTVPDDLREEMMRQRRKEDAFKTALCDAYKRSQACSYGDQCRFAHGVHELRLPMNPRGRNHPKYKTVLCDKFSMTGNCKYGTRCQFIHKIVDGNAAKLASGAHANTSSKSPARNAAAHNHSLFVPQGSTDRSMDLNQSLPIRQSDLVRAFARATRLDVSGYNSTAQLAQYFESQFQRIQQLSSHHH
Briefly: inhibitors of POS-1/mex-3 RNA binding, dose response, biochemical, fluorescence polarization (AID 1964).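 Further: purified POS-1 fused to maltose binding protein made in E. coli; potency of compounds blocking POS-1 binding to fluorescent RNA.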 A general note: In fluorescence polarisation assays a small probe gives low polarisation when free and higher when bound to something large.

The target in experiment [13] is T5, Voltage-dependent T-type calcium channel subunit alpha-1H (Homo sapiens, UniProt O95180). The experiment is classed as functional.
The target in experiment [14] is T6, Zinc finger protein mex-5 (Caenorhabditis elegans, UniProt Q9XUB2).
T6 sequence (Q9XUB2 whole entry): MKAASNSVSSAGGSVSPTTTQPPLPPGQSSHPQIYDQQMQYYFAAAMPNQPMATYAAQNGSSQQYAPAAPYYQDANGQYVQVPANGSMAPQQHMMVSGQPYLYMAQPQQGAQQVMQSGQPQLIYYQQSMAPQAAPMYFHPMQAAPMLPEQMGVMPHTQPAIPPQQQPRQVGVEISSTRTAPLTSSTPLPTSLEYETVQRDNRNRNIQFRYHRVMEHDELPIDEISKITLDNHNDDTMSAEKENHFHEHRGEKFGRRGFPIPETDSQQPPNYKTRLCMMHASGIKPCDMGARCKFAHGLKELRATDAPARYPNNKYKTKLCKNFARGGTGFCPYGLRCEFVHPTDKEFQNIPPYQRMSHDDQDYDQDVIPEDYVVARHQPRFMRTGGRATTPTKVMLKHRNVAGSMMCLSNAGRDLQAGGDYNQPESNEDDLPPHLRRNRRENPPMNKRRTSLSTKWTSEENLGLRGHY
The experiment can be described thus: MEX-5/TCR-2 RNA interaction inhibitors, dose response, biochemical, C. elegans, fluorescence polarization (AID 1960).

Experiment [15] deals with T5, Voltage-dependent T-type calcium channel subunit alpha-1H. Briefly: Inhibitors of T-Type Calcium Channels. [Related pubchem assays (depositor defined):AID449739, AID463087, AID489005, AID493041, AID504579, AID504584, AID504619, AID504628]. In kind it is functional.
Experiment [16] has as its system BJ. The experiment can be described thus: cytotoxicity toward BJ-TERT fibroblasts, dose response, cell-based, RAS-independent, luminescence (AID 1933). In kind it is functional. The settings on record: Homo sapiens.
Experiment [17] is described as follows: microbe, parasite or virus in culture. The experiment is classed as functional. The conditions noted are these: Mycobacterium tuberculosis.
Experiment [18] is described as follows: cytotoxicity toward DRD oncogenic fibroblasts, dose response, cell-based, non-viral oncogenic, luminescence (AID 1934). The settings on record: Homo sapiens. The experiment is classed as functional.
For experiment [19], the target named is G-protein coupled receptor 55 (Homo sapiens, UniProt Q9Y2T6). Briefly: GPR55 agonists via beta-arrestin recruitment, primary screen, imaging, U2OS cells, beta-arrestin-GFP redistribution (AID 1961). In kind it is functional. Background: Activated receptors often draw arrestin, which recruitment assays turn into a signal.
For experiment [20], the target named is G-protein coupled receptor 35 (Homo sapiens, UniProt Q9HC97). Briefly: GPR35 antagonists blocking zaprinast-driven arrestin recruitment, primary screen, imaging, U2OS, beta-arrestin-GFP, zaprinast agonist (AID 2058).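 Further: antagonist potency meaning inhibition of agonist-induced arrestin redistribution.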 In kind it is functional.
For experiment [21], the system named is BJ. Briefly: cells. In kind it is functional, cell-based. The settings on record: Homo sapiens.
The test system of experiment [22] is BJ. The experiment can be described thus: cytotoxicity toward Ras-transformed BJeLR fibroblasts, dose response, cell-based, alamar blue fluorescence, cherrypicked samples (AID 2631).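 Further: confirmatory dose-response assay in RAS-dependent BJ fibroblasts engineered with TERT, LT and ST, with cytotoxicity read by fluorescence.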 The settings on record: Homo sapiens. In kind it is functional.
Experiment [23] has as its system BJ. The experiment can be described thus: cytotoxicity toward BJ-TERT-LT-ST fibroblasts, dose response, cell-based, RAS-independent, luminescence (AID 1935).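 Further: BJ fibroblasts immortalized with TERT plus LT and ST oncogenes.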 In kind it is functional. The settings on record: Homo sapiens.

Activity calls are given as the source filed them. Some results are limits rather than exact numbers.

T5 sequence (O95180 whole entry): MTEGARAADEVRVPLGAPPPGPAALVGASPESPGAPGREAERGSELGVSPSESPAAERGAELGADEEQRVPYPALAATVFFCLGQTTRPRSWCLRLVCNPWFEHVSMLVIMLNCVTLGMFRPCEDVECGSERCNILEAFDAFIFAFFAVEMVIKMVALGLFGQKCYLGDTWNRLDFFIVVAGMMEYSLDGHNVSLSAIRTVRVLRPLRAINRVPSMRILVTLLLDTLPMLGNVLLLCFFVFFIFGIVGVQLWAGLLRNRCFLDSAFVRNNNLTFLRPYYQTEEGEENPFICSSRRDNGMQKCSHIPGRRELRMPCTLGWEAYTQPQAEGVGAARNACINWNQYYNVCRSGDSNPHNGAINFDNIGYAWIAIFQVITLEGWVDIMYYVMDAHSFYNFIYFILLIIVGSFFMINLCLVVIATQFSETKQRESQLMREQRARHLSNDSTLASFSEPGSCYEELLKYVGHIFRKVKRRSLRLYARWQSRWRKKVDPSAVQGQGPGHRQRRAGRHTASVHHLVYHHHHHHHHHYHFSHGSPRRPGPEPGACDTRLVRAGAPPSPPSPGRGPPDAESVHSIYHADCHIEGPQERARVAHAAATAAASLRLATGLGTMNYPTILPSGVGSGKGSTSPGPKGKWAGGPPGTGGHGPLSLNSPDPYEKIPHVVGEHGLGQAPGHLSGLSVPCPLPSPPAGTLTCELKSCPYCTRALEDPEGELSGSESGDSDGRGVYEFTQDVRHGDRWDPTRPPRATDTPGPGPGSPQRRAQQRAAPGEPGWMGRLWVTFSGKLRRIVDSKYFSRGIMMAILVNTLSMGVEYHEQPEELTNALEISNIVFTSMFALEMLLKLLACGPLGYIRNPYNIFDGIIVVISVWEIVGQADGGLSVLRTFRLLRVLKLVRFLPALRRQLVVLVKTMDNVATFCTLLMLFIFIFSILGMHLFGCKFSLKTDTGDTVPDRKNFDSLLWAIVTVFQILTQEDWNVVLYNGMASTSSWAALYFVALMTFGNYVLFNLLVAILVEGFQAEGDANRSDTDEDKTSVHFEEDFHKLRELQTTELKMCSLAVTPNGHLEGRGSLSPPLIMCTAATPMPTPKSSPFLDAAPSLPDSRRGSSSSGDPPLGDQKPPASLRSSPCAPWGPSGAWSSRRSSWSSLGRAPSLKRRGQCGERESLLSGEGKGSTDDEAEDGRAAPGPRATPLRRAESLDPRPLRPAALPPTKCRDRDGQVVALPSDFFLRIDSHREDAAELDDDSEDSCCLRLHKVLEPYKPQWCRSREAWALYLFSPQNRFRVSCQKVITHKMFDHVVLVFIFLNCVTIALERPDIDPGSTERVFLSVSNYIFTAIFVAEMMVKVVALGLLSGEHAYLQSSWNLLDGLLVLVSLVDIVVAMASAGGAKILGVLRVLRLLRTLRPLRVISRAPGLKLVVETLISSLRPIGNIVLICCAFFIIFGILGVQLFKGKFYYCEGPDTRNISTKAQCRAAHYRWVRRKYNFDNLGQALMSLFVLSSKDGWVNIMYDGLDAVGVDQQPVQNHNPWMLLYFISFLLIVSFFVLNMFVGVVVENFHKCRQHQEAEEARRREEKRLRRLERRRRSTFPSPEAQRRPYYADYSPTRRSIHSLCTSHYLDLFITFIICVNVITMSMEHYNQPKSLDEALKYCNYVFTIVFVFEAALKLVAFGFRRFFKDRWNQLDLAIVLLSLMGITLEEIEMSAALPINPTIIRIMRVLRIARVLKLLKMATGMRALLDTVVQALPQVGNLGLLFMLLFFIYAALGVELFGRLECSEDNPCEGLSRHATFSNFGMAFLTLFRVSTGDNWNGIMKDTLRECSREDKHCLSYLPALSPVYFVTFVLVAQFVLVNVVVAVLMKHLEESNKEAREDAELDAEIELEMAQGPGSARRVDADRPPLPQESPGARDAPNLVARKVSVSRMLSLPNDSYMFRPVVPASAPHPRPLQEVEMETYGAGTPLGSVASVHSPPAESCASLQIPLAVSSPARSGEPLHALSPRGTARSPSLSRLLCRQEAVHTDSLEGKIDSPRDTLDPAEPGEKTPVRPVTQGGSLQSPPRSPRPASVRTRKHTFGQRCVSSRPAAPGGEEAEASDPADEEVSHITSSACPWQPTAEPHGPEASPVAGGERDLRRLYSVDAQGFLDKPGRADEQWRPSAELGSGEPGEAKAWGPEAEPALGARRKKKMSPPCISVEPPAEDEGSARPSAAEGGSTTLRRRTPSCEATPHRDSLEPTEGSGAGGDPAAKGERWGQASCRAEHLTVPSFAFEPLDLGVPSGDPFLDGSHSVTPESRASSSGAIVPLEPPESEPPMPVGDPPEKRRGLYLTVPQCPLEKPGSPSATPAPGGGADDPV
Alkaline phosphatase, placental type, sequence (P05187 whole entry): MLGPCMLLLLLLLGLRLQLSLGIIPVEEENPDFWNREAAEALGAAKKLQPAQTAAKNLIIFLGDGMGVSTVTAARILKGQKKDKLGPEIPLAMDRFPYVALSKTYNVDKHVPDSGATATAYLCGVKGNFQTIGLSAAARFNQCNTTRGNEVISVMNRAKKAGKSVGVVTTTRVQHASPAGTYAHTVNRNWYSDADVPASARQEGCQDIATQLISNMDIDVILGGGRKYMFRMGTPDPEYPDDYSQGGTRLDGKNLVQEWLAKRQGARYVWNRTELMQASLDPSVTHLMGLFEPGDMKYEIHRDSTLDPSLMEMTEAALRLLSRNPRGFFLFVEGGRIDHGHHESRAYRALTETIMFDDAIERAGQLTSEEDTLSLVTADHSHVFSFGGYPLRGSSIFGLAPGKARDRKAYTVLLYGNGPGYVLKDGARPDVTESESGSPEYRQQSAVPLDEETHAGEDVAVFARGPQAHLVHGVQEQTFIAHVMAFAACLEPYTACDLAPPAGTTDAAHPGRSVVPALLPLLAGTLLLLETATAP
G-protein coupled receptor 35, sequence (Q9HC97 whole entry): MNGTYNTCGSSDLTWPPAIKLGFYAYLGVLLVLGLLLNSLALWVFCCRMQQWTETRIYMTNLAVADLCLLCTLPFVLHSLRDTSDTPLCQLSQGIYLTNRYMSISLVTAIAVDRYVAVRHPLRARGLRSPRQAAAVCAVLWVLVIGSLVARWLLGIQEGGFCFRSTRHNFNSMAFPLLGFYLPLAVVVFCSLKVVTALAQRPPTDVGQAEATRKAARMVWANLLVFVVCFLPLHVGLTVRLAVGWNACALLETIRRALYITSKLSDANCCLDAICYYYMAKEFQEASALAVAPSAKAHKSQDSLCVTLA
X-box-binding protein 1, sequence (P17861 whole entry): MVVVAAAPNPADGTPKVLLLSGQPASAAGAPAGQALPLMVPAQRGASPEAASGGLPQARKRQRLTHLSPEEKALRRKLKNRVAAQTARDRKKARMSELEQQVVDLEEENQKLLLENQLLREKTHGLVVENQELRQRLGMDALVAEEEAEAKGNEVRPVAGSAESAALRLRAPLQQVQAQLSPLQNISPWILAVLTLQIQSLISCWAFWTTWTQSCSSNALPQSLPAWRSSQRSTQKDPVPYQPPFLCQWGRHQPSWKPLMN
G-protein coupled receptor 55, sequence (Q9Y2T6 whole entry): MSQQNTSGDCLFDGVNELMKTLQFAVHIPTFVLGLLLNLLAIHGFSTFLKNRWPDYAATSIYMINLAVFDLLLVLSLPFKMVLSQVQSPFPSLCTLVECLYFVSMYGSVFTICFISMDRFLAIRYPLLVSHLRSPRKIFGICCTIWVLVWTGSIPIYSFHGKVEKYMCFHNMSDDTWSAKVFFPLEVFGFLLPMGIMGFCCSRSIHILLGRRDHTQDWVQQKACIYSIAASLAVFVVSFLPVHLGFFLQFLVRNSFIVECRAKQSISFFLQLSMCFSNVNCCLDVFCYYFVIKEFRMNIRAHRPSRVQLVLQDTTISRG
Trypsin, sequence (P00761 whole entry): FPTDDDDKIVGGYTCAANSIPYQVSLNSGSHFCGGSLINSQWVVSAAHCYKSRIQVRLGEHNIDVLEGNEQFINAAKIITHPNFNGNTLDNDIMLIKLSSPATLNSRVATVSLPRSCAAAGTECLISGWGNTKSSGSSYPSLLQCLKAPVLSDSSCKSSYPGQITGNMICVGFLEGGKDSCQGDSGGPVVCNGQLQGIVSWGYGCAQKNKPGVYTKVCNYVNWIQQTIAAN

On to `Cc1cc(C)c(C#N)c(SCC(=O)c2ccc3c(c2)OCO3)n1`, for which the IC50 in experiment [1] and in experiment [2] was > 100 µM (inactive) throughout.

Turning to `N#CC1=C([S-])NC(=O)[C@H]([n+]2ccccc2)[C@H]1c1ccc(Cl)cc1`, the IC50 (as a rule, the concentration needed to halve the response being measured) in experiment [3] was > 56.8 µM (not active); in experiment [4], > 50 µM (inactive).

As to `COc1ccc(-c2oc3ccc(N4CCOCC4)cc3c2/C=C/c2ccc(OC)c(OC)c2)cc1`, the AC50 (usually the midpoint of the concentration-response curve, whichever way the signal moves) on Trypsin was 2.77 µM (active).

With `C=CCn1c(SCC(=O)c2ccc(O)c(O)c2)nnc1-c1cccc(Cl)c1`, the IC50 in [1] is 6.62 µM (active); in experiment [5], 79.5 µM (active); in experiment [2] it was 20.7 µM (active).

For the compound `Cc1cc(Nc2cccc([N+](=O)[O-])c2)n2c(nc3ccccc32)c1C#N`, the AC50 is 3.46 µM (active) in [6], 2.15 µM (active) in experiment [7], 2.33 µM (active) in [9] and 1.9 µM (active) in experiment [10]. For the same compound, the EC50 (in general, the concentration at which the effect is half-maximal) in [8] was 2.47 µM (active); in experiment [11] it was > 60 µM (inconclusive). The “Absolute IC50 (XBP1)” value on X-box-binding protein 1 is 10 µM.

Consider `Cc1ccc(N2C(=O)c3cccc4c(N5CCN(C)CC5)ccc(c34)C2=O)c2cccnc12`, for which the EC50 in experiment [12] is 7.8 µM (active); in experiment [13], 0.658 µM (active); in [14], 7.84 µM (active); in experiment [15] it was 4.61 µM (active).

As for `COc1ccc(C=C2C=C(C(C)(C)C)C(=O)C(C(C)(C)C)=C2)cc1OC`, the EC50 in the experiment with BJ [16] was 2.93 µM (active); in experiment [18], 5.35 µM (inconclusive); in experiment [19], > 32 µM (inactive); in the experiment on BJ [21], 6.69 µM (active); with BJ [22], 0.571 µM (inconclusive); in the experiment with BJ [23], 3.54 µM (inconclusive). For the same compound, the concentration at half-maximal activity (AC50) in experiment [9] is 1.88 µM (active). Besides, the CC50 in experiment [17] was 12.8 µM (active). Moreover, the IC50 in experiment [20] is 3.16 µM (active).

Regarding `CCN(CC)c1ccc(/C=C(/C#N)c2nc3cc(C)ccc3[nH]2)c(OC(C)C)c1`, the EC50 in experiment [13] was 1.62 µM (active); in experiment [8], 0.823 µM (active); in [11], > 60 µM (not active). Further, in [20], the IC50 is 0.557 µM (active).
